The values that follow come from patent US7566720B2, “2-pyridinyl-6,7,8,9-tetrahydropyrimido[1,2-a] pyrimidin-4-one and 7-pyridinyl-2,3-dihydroimidazo[1,2-a] pyrimidin-5(1H)one derivatives” (Sanofi-Aventis, priority 2000, dated 2009).

Structures can show the parent of a compound that is named as a salt.

Consider `CC(C(O)c1ccccc1)N1CCCn2c1nc(-c1ccncc1)cc2=O` (racemic) [Compound No 74 of Table 1, 9-[1-methyl-2-hydroxy-2-phenyl-ethyl]-2-pyridin-4-yl-6,7,8,9-tetrahydro-4H-pyrimido[1,2-a]pyrimidin-4-one], for which the melting point (usually the temperature, or range, at which the solid turns liquid) lay in the range of 232 to 234 °C.

`O=C(CCc1ccccc1)N1CCCn2c1nc(-c1ccncc1)cc2=O` [Compound No 25 of Table 1, 9-[3-phenylpropanoyl]-2-pyridin-4-yl-6,7,8,9-tetrahydro-4H-pyrimido[1,2-a]pyrimidin-4-one] gave a melting point of 230 to 232 °C.

The compound `CC(C(=O)c1ccccc1)N1CCCn2c1nc(-c1ccncc1)cc2=O` (racemic) (as salt: hydrochloride) [Compound No 73 of Table 1, 9-[1-methyl-2-oxo-2-phenyl-ethyl]-2-pyridin-4-yl-6,7,8,9-tetrahydro-4H-pyrimido[1,2-a]pyrimidin-4-one] gave a melting point of 194 to 196 °C.

Compound `O=C(CCc1ccccc1)N1CCCn2c1nc(-c1ccncc1)cc2=O` (as salt: salt) [Compound No 25 of Table 1, 9-[3-phenylpropanoyl]-2-pyridin-4-yl-6,7,8,9-tetrahydro-4H-pyrimido[1,2-a]pyrimidin-4-one] displayed a melting point of 158 to 160 °C.
